Measured values as given in publication PMC6880826 (Beilstein Journal of Organic Chemistry, 2019).
Where two headings read alike, the source gives them in different places.

How the values were obtained:
[1] = Mouse pharmacokinetics, plasma and brain, oral dose; format: in vivo, CD1 mouse; details: p.o. 10 mg/kg
Description: The route of administration and dose were selected to most closely match relevant published mouse disease model studies. […] Table S1: Study design summary S8 (1 picture or pasted object on this page, not shown here)

[2] = Metabolic stability in mouse liver microsomes (MLM); format: in vitro ADME
[3] = target: T1, Notum(81-451 Cys330Ser) (Homo sapiens, UniProt Q6P988, C330S); test: Notum OPTS fluorescence inhibition assay
T1 sequence (Q6P988 81-451 C330S): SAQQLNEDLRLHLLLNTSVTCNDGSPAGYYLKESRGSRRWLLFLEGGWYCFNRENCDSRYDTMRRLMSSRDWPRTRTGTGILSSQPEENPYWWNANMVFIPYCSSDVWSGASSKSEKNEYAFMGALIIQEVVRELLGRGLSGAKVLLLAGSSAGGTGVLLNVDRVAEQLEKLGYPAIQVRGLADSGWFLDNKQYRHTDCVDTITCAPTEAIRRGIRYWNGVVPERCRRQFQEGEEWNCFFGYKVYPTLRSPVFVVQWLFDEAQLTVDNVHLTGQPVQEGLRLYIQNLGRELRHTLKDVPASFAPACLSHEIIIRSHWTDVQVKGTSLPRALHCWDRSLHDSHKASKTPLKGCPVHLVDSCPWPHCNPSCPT

[4] = test system: P-gp (MDR1); test: MDCK-MDR1 monolayer permeability / P-gp efflux; format: in vitro ADME; details: dog; for Papp: MDCK-MDR1, Table S4; for MDCK-MDR1 AB Papp: Table S4; for efflux ratio: MDCK-MDR1, csv file, read-out: MDCK-mdr1 ER
[5] = test system: MDCK-MDR1 monolayer; test: MDCK-MDR1 monolayer permeability / P-gp efflux; format: in vitro ADME; details: for efflux ratio: Table S4; for MDCK-mdr1 ER / MDCK-mdr1 AB / MDCK-mdr1 BA: csv file; for MDCK-mdr1 AB: AB direction; for MDCK-mdr1 BA: BA direction
[6] = Table S4, mouse liver microsomes
[7] = AB direction, read-out: MDCK-MDR1 AB Papp
[8] = BA direction, read-out: MDCK-MDR1 BA Papp

Structure (SMILES) | MLM Cli [2, 6] [µL/min/mg] | IC50 [3] [nM] | Papp [4, 7] [×10⁻⁶ cm/s] | Papp [4, 8] [×10⁻⁶ cm/s] | efflux ratio [5] | MDCK-mdr1 AB [5] [x10–6 cm/s] | MDCK-mdr1 BA [5] [x10–6 cm/s] | MLM Cli ([2]; csv file) [µL/min/mg] | other results
O=C(O)CSc1ncnc2c(C3CC3)c(Cl)sc12 [Compound 1] | 1e+06 | – | – | – | – | – | – | – | Cmax ([1]; CD1, po, brain): 500 ng/g; Tmax ([1]; CD1, po, brain): 2 h; half-life ([1]; CD1, po, brain): 7.1 h; AUC(0-inf) ([1]; CD1, po, plasma): 354 µg·h/mL; AUC(0-t) ([1]; CD1, po, plasma): 303 µg·h/mL; Cmax ([1]; CD1, po, plasma): 35400 ng/mL; Tmax ([1]; CD1, po, plasma): 2 h; half-life ([1]; CD1, po, plasma): 8.8 h; AUC0→t ([1]; brain): 3,700 h·ng/g; AUC0→∞ ([1]; brain): 4,080 h·ng/g; Cli in mouse liver microsomes (MLM) [2]: 1.0 μL/min/mg protein
CN(C)C(=O)CSc1ncnc2c(C3CC3)c(Cl)sc12 [Compound 17a] | – | 7.5 | – | – | – | – | – | – | –
O=C(CSc1ncnc2c(C3CC3)c(Cl)sc12)N1CCCCC1 [Compound 17b] | – | 91 | – | – | – | – | – | – | –
O=C(CSc1ncnc2c(C3CC3)c(Cl)sc12)N1CCOCC1 [Compound 17c] | > 500 | 18 | 40 | 38 | 0.95 | 40 | 38 | > 500 | MDCK-mdr1 ER [5]: 0.95
O=C(CSc1ncnc2c(C3CC3)c(Cl)sc12)N1CCS(=O)(=O)CC1 [Compound 17d] | – | 48 | – | – | – | – | – | – | –
O=C(CSc1ncnc2c(C3CC3)c(Cl)sc12)N1CC2COCC2C1 (stereo not shown) [Compound 17e] | > 500 | 10 | – | – | – | – | – | > 500 | –
O=C(CSc1ncnc2c(C3CC3)c(Cl)sc12)N1CC2(COC2)C1 [Compound 17f] | 100 | 10 | – | – | – | – | – | 100 | –
O=C1CN(C(=O)CSc2ncnc3c(C4CC4)c(Cl)sc23)CN1 [Compound 17g] | 19 | 1.5 | – | 14 | 3.7 | 3.8 | 14 | 19 | MDCK-MDR1 AB Papp ([4]; AB direction): 3.8 ×10⁻⁶ cm/s; MDCK-mdr1 ER [5]: 3.7
CN1CN(C(=O)CSc2ncnc3c(C4CC4)c(Cl)sc23)CC1=O [Compound 17h] | 45 | 1.5 | 6 | 13 | 2.2 | 6 | 13 | 45 | efflux ratio [4]: 2.2
O=C1CN(C(=O)CSc2ncnc3c(C4CC4)c(Cl)sc23)CCN1 [Compound 17i] | 24 | 7.1 | 7.9 | 65 | 8.2 | 7.9 | 65 | 24 | MDCK-mdr1 ER [5]: 8.2
O=C1CN(C(=O)CSc2ncnc3c(C4CC4)c(Cl)sc23)CCCN1 [Compound 17j] | – | 36 | – | – | – | – | – | – | –
O=C1CCN(C(=O)CSc2ncnc3c(C4CC4)c(Cl)sc23)CCN1 [Compound 17k] | – | 49 | – | – | – | – | – | – | –
O=C(CSc1ncnc2c(C3CC3)c(Cl)sc12)N1CCc2ncccc2C1 [Compound 17l] | – | 4.6 | – | – | – | – | – | – | –
O=C(CSc1ncnc2c(C3CC3)c(Cl)sc12)N1CCn2ccnc2C1 [Compound 17m] | 290 | 2.7 | 21 | 25 | 1.2 | 21 | 25 | 290 | efflux ratio [4]: 1.2
O=C(CSc1ncnc2c(C3CC3)c(Cl)sc12)N1CCn2cncc2C1 [Compound 17n] | 49 | 2.5 | 9 | 31 | 3.4 | 9 | 31 | 49 | efflux ratio [4]: 3.4
O=C(CSc1ncnc2c(C3CC3)c(Cl)sc12)N1CCc2[nH]cnc2C1 [Compound 17o] | – | 2.3 | – | – | – | – | – | – | –
O=C(CSc1ncnc2c(C3CC3)c(Cl)sc12)N1CCn2cnnc2C1 [Compound 17p] | 29 | 1.2 | – | 93 | 98 | 0.95 | 93 | 29 | MDCK-MDR1 AB Papp ([4]; AB direction): 0.95 ×10⁻⁶ cm/s; MDCK-mdr1 ER [5]: 98
O=C(CSc1ncnc2c(C3CC3)c(Cl)sc12)N1CCn2c(nnc2C(F)(F)F)C1 [Compound 17q] | 190 | 8 | 12 | 34 | 2.8 | 12 | 34 | 190 | efflux ratio [4]: 2.8
O=C(CSc1ncnc2c(C3CC3)c(Cl)sc12)N1CCn2nncc2C1 [Compound 17r] | 110 | 2.4 | 26 | 28 | 1.1 | 26 | 28 | 110 | efflux ratio [4]: 1.1
